Measurements: paper PMC5761851, “Application of a phenotypic drug discovery strategy to identify biological and chemical starting points for inhibition of TSLP production in lung epithelial cells” (PLoS ONE, 2018)
Values joined by “and” are separate entries in the source; they are usually repeats but may differ in a detail not shown here. Equal entries are not always repeated.

Columns and labels:
Assay in all cases: kinase selectivity panel
Format in all cases: biochemical
[1] = target: T1, CK1γ1 (Homo sapiens, UniProt Q9HCP0); conditions: read-out: percentage of control activity (POC), CK1γ1
T1 construct: purchased Eurofins Pharma Discovery Services (KinaseProfiler; Cerep BioPrint panel)
Protocol: (§1) Kinase selectivity was evaluated at Eurofins Pharma Discovery Services using a selection of 125 representative kinases tested at a concentration of 10 μM in duplicate (S3 Table). IC50 values for selected activities were further characterized at 9 duplicate concentrations. DNA-PK activity was determined at the SelectScreen® Biochemical kinase Profiling Service of Thermo Fisher Scientific.

[2] = target: T2, Pim-1 (Homo sapiens, UniProt P11309); conditions: read-out: percentage of control activity (POC), Pim-1
T2 construct: purchased Eurofins Pharma Discovery Services (KinaseProfiler; Cerep BioPrint panel)
Protocol: as §1

[3] = target: T3, JNK3 (Homo sapiens, UniProt P53779); conditions: read-out: percentage of control activity (POC), JNK3
T3 construct: purchased Eurofins Pharma Discovery Services (KinaseProfiler; Cerep BioPrint panel)
Protocol: as §1

[4] = target: T4, ROCK-II (Homo sapiens, UniProt O75116); conditions: read-out: percentage of control activity (POC), ROCK-II
T4 construct: purchased Eurofins Pharma Discovery Services (KinaseProfiler; Cerep BioPrint panel)
Protocol: as §1

[5] = target: T5, Fgr (Homo sapiens, UniProt P09769); conditions: read-out: percentage of control activity (POC), Fgr
T5 construct: purchased Eurofins Pharma Discovery Services (KinaseProfiler; Cerep BioPrint panel)
Protocol: as §1

[6] = target: T6, FAK (Homo sapiens, UniProt Q05397); conditions: read-out: percentage of control activity (POC), FAK
T6 construct: purchased Eurofins Pharma Discovery Services (KinaseProfiler; Cerep BioPrint panel)
Protocol: as §1

[7] = target: T7, ALK (Homo sapiens, UniProt Q9UM73); conditions: read-out: percentage of control activity (POC), ALK
T7 construct: purchased Eurofins Pharma Discovery Services (KinaseProfiler; Cerep BioPrint panel)
Protocol: as §1

[8] = target: T8, Tie2 (Homo sapiens, UniProt Q02763); conditions: for remaining activity at 10 µM: read-out: percentage of control activity (POC), Tie2
T8 construct: purchased Eurofins Pharma Discovery Services (KinaseProfiler; Cerep BioPrint panel)
Protocol: as §1

[9] = target: T9, CDK1/cyclinB (Homo sapiens, UniProt P06493); conditions: read-out: percentage of control activity (POC), CDK1/cyclinB
T9 construct: purchased Eurofins Pharma Discovery Services (KinaseProfiler; Cerep BioPrint panel)
Protocol: as §1

[10] = target: T10, PKCθ (Homo sapiens, UniProt Q04759); conditions: read-out: percentage of control activity (POC), PKCθ
T10 construct: purchased Eurofins Pharma Discovery Services (KinaseProfiler; Cerep BioPrint panel)
Protocol: as §1

[11] = target: T11, DDR2 (Homo sapiens, UniProt Q16832); conditions: for remaining activity at 10 µM: read-out: percentage of control activity (POC), DDR2
T11 construct: purchased Eurofins Pharma Discovery Services (KinaseProfiler; Cerep BioPrint panel)
T11 sequence (Q16832 22-855): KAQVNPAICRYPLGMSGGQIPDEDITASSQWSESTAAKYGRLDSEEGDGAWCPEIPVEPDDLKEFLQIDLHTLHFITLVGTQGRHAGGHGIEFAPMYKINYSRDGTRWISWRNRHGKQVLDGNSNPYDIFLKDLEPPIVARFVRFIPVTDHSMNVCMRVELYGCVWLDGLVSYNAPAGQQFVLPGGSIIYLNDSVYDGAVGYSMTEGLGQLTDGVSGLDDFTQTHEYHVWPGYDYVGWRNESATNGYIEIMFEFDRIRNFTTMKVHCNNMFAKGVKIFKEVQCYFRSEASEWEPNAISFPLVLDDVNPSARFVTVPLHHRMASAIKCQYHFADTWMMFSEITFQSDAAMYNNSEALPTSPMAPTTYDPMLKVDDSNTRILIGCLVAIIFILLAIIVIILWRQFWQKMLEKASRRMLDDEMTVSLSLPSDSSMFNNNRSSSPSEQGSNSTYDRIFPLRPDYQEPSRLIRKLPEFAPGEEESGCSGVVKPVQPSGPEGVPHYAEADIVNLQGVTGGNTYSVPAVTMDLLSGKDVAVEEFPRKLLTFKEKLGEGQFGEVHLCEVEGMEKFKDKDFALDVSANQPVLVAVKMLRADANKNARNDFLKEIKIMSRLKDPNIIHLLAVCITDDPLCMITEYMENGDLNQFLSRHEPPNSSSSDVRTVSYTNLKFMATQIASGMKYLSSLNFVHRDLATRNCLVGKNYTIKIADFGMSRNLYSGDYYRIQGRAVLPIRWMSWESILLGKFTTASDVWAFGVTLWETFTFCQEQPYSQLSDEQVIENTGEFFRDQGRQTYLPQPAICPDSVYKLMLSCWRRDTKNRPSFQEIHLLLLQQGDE
Protocol: as §1

[12] = target: T12, FGFR4 (Homo sapiens, UniProt P22455); conditions: read-out: percentage of control activity (POC), FGFR4
T12 construct: purchased Eurofins Pharma Discovery Services (KinaseProfiler; Cerep BioPrint panel)
Protocol: as §1

[13] = target: T13, MAPK2 (Homo sapiens, UniProt P28482); conditions: read-out: percentage of control activity (POC), MAPK2
T13 construct: purchased Eurofins Pharma Discovery Services (KinaseProfiler; Cerep BioPrint panel)
Protocol: as §1

[14] = target: T14, MINK (Homo sapiens, UniProt Q8N4C8); conditions: read-out: percentage of control activity (POC), MINK
T14 construct: purchased Eurofins Pharma Discovery Services (KinaseProfiler; Cerep BioPrint panel)
Protocol: as §1

[15] = target: T15, Hck (Homo sapiens, UniProt P08631); conditions: for remaining activity at 10 µM: read-out: percentage of control activity (POC), Hck
T15 construct: Eurofins Pharma Discovery Services (contract assay service)
Protocol: as §1

[16] = target: T16, mTOR (Homo sapiens, UniProt P42345); conditions: for remaining activity at 10 µM: read-out: percentage of control activity (POC), mTOR
T16 construct: Eurofins Pharma Discovery Services (contract assay service)
Protocol: as §1

[17] = target: T17, AMPKα1 (Homo sapiens, UniProt Q13131); conditions: read-out: percentage of control activity (POC), AMPKα1
T17 construct: purchased Eurofins Pharma Discovery Services (KinaseProfiler; Cerep BioPrint panel)
Protocol: as §1

[18] = target: T18, CDK7/cyclinH/MAT1 (Homo sapiens, UniProt P50613); conditions: read-out: percentage of control activity (POC), CDK7/cyclinH/MAT1
T18 construct: purchased Eurofins Pharma Discovery Services (KinaseProfiler; Cerep BioPrint panel)
Protocol: as §1

T17 sequence (Q13131 whole entry): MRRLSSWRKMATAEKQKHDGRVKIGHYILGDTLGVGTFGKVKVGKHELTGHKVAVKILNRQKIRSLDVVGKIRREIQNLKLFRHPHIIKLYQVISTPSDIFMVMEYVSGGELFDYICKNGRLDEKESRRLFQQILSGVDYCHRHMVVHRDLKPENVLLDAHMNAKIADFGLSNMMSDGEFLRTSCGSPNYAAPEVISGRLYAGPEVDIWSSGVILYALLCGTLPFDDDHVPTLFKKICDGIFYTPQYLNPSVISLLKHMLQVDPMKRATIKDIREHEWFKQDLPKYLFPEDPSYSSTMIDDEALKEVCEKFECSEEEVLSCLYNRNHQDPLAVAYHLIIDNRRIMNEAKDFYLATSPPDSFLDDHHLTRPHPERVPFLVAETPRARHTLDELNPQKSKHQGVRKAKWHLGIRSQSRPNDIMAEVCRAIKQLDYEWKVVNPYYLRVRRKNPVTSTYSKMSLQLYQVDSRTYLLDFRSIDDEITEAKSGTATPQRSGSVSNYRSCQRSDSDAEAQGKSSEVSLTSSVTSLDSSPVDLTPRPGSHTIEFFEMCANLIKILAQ
T17 sequence (Q9Y478 whole entry partner): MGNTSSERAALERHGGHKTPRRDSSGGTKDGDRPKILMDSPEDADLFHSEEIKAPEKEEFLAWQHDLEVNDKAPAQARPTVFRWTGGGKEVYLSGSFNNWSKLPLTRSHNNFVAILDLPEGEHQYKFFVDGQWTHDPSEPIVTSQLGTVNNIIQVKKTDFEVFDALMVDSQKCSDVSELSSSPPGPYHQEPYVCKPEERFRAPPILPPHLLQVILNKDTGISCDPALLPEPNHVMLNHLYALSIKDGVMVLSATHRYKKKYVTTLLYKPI
T17 sequence (P54619 whole entry partner): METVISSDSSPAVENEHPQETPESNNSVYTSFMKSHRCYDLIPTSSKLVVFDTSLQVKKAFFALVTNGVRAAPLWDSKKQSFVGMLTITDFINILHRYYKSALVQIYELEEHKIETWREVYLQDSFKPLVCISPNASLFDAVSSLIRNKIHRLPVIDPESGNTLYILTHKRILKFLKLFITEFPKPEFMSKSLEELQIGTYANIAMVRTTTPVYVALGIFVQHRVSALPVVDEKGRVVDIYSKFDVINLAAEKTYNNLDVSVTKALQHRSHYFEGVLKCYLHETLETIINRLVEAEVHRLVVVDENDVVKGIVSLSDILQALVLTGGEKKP
T10 sequence (Q04759 whole entry): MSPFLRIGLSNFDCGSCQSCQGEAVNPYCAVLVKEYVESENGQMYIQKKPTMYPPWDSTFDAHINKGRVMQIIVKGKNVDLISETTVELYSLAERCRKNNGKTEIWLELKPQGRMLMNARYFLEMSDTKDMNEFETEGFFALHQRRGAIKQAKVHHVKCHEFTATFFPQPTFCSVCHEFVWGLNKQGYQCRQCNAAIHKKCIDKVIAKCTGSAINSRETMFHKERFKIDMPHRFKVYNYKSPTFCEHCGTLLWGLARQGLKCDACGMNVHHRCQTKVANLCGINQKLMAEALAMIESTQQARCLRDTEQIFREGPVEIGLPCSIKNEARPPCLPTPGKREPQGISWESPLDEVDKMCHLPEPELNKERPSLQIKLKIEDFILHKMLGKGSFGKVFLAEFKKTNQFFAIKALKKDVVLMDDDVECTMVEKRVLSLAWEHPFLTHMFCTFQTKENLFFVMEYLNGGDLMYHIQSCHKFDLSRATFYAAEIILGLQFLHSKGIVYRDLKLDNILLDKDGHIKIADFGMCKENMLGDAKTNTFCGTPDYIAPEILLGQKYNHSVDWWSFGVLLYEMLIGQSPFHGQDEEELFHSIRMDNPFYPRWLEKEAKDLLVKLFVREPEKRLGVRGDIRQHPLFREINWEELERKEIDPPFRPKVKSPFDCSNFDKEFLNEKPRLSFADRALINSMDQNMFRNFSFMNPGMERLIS
T6 sequence (Q05397 whole entry): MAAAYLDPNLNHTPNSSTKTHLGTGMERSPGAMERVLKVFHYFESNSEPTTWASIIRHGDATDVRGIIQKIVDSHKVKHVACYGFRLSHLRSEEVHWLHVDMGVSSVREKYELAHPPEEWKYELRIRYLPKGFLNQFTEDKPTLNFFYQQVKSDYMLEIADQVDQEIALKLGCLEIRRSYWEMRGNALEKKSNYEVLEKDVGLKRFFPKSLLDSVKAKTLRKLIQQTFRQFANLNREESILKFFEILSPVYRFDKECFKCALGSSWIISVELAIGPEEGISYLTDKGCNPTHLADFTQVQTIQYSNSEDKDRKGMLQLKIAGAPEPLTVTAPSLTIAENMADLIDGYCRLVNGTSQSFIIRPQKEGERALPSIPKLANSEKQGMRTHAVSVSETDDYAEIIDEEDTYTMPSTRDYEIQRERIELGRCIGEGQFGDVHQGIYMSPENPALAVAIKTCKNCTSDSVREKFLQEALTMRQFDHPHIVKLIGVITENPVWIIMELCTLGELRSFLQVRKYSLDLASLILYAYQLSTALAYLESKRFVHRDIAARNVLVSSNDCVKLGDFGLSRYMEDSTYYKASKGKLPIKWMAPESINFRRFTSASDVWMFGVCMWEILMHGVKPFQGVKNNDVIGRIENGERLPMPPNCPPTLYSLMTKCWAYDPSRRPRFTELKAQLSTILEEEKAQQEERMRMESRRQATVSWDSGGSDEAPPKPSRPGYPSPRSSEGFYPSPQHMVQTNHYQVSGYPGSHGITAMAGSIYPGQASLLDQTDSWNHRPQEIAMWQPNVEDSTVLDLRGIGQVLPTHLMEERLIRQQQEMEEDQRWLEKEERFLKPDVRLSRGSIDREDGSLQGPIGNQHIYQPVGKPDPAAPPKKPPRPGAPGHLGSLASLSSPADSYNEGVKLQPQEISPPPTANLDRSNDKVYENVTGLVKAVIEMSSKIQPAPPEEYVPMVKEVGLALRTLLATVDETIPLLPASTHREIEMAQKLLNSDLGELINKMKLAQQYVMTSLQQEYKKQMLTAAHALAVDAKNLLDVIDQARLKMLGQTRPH
T4 sequence (O75116 whole entry): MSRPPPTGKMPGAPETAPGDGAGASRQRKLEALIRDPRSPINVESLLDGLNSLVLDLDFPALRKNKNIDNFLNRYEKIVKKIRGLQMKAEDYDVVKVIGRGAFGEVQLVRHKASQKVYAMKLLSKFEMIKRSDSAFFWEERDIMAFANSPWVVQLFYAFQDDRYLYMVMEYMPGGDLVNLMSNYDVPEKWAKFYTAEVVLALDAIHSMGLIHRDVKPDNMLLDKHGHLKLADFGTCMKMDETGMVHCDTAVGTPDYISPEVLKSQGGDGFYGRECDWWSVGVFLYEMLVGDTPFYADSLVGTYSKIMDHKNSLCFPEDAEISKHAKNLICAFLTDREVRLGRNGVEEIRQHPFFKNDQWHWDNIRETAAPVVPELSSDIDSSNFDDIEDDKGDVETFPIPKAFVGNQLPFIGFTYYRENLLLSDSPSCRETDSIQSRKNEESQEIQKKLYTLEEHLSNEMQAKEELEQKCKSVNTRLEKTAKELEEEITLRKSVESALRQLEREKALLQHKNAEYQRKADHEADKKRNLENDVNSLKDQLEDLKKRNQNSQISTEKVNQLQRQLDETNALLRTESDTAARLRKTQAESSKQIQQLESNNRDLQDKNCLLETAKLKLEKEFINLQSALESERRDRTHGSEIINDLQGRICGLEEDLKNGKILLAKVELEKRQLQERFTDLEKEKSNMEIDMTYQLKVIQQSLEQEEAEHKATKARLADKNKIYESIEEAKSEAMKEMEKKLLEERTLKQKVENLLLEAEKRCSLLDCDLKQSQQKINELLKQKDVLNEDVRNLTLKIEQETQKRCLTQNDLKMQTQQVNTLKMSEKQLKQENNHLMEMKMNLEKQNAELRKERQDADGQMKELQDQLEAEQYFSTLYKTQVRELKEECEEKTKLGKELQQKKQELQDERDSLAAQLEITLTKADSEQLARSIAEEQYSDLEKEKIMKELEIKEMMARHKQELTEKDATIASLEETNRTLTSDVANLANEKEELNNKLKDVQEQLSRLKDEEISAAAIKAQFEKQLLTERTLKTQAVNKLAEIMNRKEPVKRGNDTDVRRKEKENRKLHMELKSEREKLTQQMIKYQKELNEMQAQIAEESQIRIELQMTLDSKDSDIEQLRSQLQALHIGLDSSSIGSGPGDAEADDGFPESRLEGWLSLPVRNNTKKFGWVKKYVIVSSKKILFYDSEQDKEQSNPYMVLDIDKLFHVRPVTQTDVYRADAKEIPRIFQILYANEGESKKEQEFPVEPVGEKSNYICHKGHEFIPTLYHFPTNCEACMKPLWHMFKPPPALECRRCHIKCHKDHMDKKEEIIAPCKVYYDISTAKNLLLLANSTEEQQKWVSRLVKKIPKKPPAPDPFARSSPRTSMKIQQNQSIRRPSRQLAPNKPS
T1 sequence (Q9HCP0 whole entry): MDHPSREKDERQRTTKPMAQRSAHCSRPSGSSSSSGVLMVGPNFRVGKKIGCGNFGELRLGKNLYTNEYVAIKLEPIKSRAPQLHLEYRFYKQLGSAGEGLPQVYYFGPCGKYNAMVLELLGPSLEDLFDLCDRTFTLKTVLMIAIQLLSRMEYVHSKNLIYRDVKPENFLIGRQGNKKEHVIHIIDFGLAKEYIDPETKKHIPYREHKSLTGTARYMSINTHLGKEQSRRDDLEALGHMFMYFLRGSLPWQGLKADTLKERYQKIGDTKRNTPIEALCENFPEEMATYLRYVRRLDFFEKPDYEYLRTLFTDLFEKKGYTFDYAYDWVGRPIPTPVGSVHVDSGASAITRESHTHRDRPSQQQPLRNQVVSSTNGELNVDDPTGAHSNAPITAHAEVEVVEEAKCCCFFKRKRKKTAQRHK
T2 sequence (P11309 whole entry): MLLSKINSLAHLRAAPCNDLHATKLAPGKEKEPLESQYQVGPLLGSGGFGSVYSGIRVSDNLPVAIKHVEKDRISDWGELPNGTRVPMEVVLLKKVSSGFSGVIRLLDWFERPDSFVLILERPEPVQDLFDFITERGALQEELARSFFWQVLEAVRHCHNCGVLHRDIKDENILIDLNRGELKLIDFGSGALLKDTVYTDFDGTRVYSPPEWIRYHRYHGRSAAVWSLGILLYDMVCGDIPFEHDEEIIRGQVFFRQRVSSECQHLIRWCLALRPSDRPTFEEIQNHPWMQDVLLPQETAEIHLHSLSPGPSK

Compound	remaining activity at 10 µM [1]	remaining activity at 10 µM [2]	remaining activity at 10 µM [3]	remaining activity at 10 µM [4]	remaining activity at 10 µM [5]	remaining activity at 10 µM [6]	remaining activity at 10 µM [7]	remaining activity at 10 µM [8]	remaining activity at 10 µM [9]	remaining activity at 10 µM [10]	remaining activity at 10 µM [11]	remaining activity at 10 µM [12]	remaining activity at 10 µM [13]	remaining activity at 10 µM [14]	remaining activity at 10 µM ([15]; 10 μM)	remaining activity at 10 µM ([16]; 10 μM)	remaining activity at 10 µM [17]	remaining activity at 10 µM [18]	inhibition at 10 µM [11]	further results
CC(C)(C)N1CCC(c2cc(-c3ccc(F)cc3Cl)c3cc[n+]([O-])c(-c4c(Cl)cccc4Cl)c3n2)CC1 [compound 2]	101%	86%	97%	100%	99%	111%	89%	79%	100%	91%	94%	88%	105%	104%	84%	101%	105%	115%	–	–
Cc1ccc(C(=O)NCC2CC2)cc1-c1ccc2c(c1)NC(=O)C21CCCC1 [compound 3]	98%	79%	65%	96%	93%	99%	77%	96%	96%	97%	71%	91%	97%	93%	87%	99%	98%	104%	–	–
Cn1cc(-c2cccc(-c3nc(C(=O)NC4C5CC6CC4CC(O)(C6)C5)c(N)nc3N)c2)cn1 (stereo not shown) [compound 4]	89%	68%	72%	85%	67%	99%	64%	76%	64%	84%	47%	86%	97%	94%	47%	13%	85%	95%	53%	inhibition at 10 µM ([15]; 10 μM): 53%; IC50 ([15]; biochemical dose response, duplicate, read-out: Inhibition of indicated activity (IC50, μM): Hck): 3.58 µM; inhibition at 10 µM ([16]; 10 μM): 87%; IC50 ([16]; biochemical dose response, duplicate, read-out: Inhibition of indicated activity (IC50, μM): mTOR): ~1 µM and 0.964 µM
CS(=O)(=O)N1CCN(c2ccc(Nc3ncc(C(N)=O)c(NC4CC4)n3)cc2)CC1 [compound 5]	25%	81%	-4%	3%	5%	1%	62%	42%	71%	26%	28%	73%	49%	14%	7%	96%	-1%	71%	–	–
COc1c(NC(=O)c2ccc(C)c(-c3nnc4c(NCC(C)(C)C)nccn34)c2)cc(C(C)(C)C)cc1NS(C)(=O)=O [compound 7, reference compound]	98%	96%	75%	93%	98%	104%	146%	27%	101%	98%	3%	89%	99%	110%	84%	96%	114%	101%	97%	inhibition at 10 µM [8]: 83%
